Experimental data from US20120220564A1, “SELECTIVE CALCIUM CHANNEL MODULATORS” (Zalicus Pharmaceuticals Ltd., priority 2009, published 2012).

How the values were obtained:
[1] = tested on: Rat SNL tactile allodynia; assay: L5/L6 spinal nerve ligation (SNL) Chung pain model, tactile allodynia (von Frey); type: in vivo; details: for % Antiallodynia (Mean ± SD): 100 mg/kg PO, n = 7-8
Source text: The Spinal Nerve Ligation is an animal model representing peripheral nerve injury generating a neuropathic pain syndrome. In this model experimental animals develop the clinical symptoms of tactile allodynia and hyperalgesia. L5/L6 Spinal nerve ligation (SNL) injury was induced using the procedure of Kim and Chung (Kim et al., Pain 50:355-363 (1992)) in male Sprague-Dawley rats (Harlan; Indianapolis, Ind.) weighing 200 to 250 grams.
Anaesthesia was induced with 2% isofluorane in O2 at 2 L/min and maintained with 0.5% isofluorane in O2. Rats were then shaved and aseptically prepared for surgeries. A 2 cm paraspinal incision was made at the level of L4-S2. L4/L5 was exposed by removing the transverse process above the nerves with a small rongeur. The L5 spinal nerve is the larger of the two visible nerves below the transverse process and lies closest to the spine. The L6 spinal nerve is located beneath the corner of the slope bone. A home-made glass Chung rod was used to hook L5 or L6 and a pre-made slip knot of 4.0 silk suture was placed on the tip of the rod just above the nerve and pulled underneath to allow for the tight ligation. The L5 and L6 spinal nerves were tightly ligated distal to the dorsal root ganglion. The incision was closed, and the animals were allowed to recover for 5 days.
Sham control rats underwent the same operation and handling as the experimental animals, but without SNL.
Prior to initiating drug delivery, baseline behavioural testing data is obtained. At selected times after infusion of the Test or Control Article behavioural data can then be collected again.
The assessment of tactile allodynia consisted of measuring the withdrawal threshold of the paw ipsilateral to the site of nerve injury in response to probing with a series of calibrated von Frey filaments (innocuous stimuli). Animals were acclimated to the suspended wire-mesh cages for 30 min before testing. Each von Frey filament was applied perpendicularly to the plantar surface of the ligated paw of rats for 5 sec. A positive response was indicated by a sharp withdrawal of the paw. For rats, the first testing filament is 4.31. Measurements were taken before and after administration of test articles. […] The protocol was repeated until three changes in behaviour were determined (“up and down” method) (Chaplan et al., J. Neurosci. Methods 53:55-63 (1994)). The 50% paw withdrawal threshold was determined as (10^[Xf+kδ])/10,000, where Xf=the value of the last von Frey filament employed, k=Dixon value for the positive/negative pattern, and δ=the logarithmic difference between stimuli. The cut-off values for rats were no less than 0.2 g and no higher than 15 g (5.18 filament); for mice no less than 0.03 g and no higher than 2.34 g (4.56 filament). A significant drop of the paw withdrawal threshold compared to the pre-treatment baseline is considered tactile allodynia.

6 Hz psychomotor seizure = 6 Hz psychomotor seizure model of partial epilepsy; type: in vivo, mice; design: concentration or dose not given beside the values
Source text: Compounds can also be evaluated for the protection against seizures induced by a 6 Hz, 0.2 ms rectangular pulse width of 3 s duration, at a stimulus intensity of 32 mA (CC97) applied to the cornea of male CF1 mice (20-30 g) according to procedures described by Barton et al, “Pharmacological Characterization of the 6 Hz Psychomotor Seizure Model of Partial Epilepsy,” Epilepsy Res. 47(3):217-27 (2001). Seizures are characterised by the expression of one or more of the following behaviours: stun, forelimb clonus, twitching of the vibrissae and Straub-tail immediately following electrical stimulation.

α1H (CaV 3.2) = molecular target: T1, α1H (CaV 3.2) (Homo sapiens, UniProt O95180); assay: T-type calcium channel block, whole cell patch clamp; type: cell-based; details: HEK cells, mainly non-inactivated protocol; values above 10,000 nM represented as 10000
T1 construct: expressed in transfected cells; host or cells: HEK 293
Protocol: (§1) T-type calcium channel blocking activity was assayed in human embryonic kidney cells, HEK 293 (Invitrogen), stably transfected with the T-type calcium channel subunits. Briefly, cells were cultured in Dulbecco's modified eagle medium (DMEM) supplemented with 10% fetal bovine serum, 200 U/ml penicillin, and 0.2 mg/mL streptomycin at 37° C. with 5% CO2. At 85% confluency, cells were split with 0.25% trypsin/1 mM EDTA and plated at 10% confluency on glass coverslips. At 12 hours, the medium was replaced, and the cells stably transfected using a standard calcium phosphate protocol and the appropriate calcium channel cDNA's. Fresh DMEM was supplied, and the cells transferred to 28° C./5% CO2. Cells were incubated for 1 to 2 days prior to whole cell recording.
(§2) Standard patch-clamp techniques were employed to identify blockers of T-type currents. Briefly, previously described HEK cell lines stably expressing human α1G, α1H and α1I T-type channels were used for all the recordings (passage #: 4-20, 37° C., 5% CO2). Whole cell patch clamp experiments were performed using an Axopatch 200B amplifier (Axon Instruments, Burlingame, Calif.) linked to a personal computer equipped with pCLAMP software. Data were analyzed using Clampfit (Axon Instruments) and SigmaPlot 4.0 (Jandel Scientific). To obtain T-type currents, plastic dishes containing semi-confluent cells were positioned on the stage of a ZEISS AXIOVERT S100 microscope after replacing the culture medium with external solution (Table 2). Whole-cell patches were obtained using pipettes (borosilicate glass with filament, O.D.: 1.5 mm, I.D.: 0.86 mm, 10 cm length), fabricated on a SUTTER P-97 puller with resistance values of ˜5 MΩ (Table 3).
(§3) T-type currents were reliably obtained by using two voltage protocols:
(§4) In the non-inactivating protocol, the holding potential is set at −110 mV and with a pre-pulse at −100 mV for 1 second prior to the test pulse at −40 mV for 50 ms. In the inactivation protocol, the pre-pulse is at approximately −85 mV for 1 second, which inactivates about 15% of the T-type channels (Scheme 1).
(§5) Test compounds were dissolved in external solution, 0.1-0.01% DMSO. After ˜10 minutes rest, they were applied by gravity close to the cell using a WPI microfil tubing. The “non-inactivated” pre-pulse was used to examine the resting block of a compound. The “inactivated” protocol was employed to study voltage-dependent block. However, the initial data shown below were mainly obtained using the non-inactivated protocol only. IC50 values are shown for various compounds of the invention in Table 4. […] In Table 4, empty cells indicate that inhibition by the compound was not detected.

[2] = tested on: minimal muscular or neurological impairment (rotarod); assay: Mouse rotarod assay; type: in vivo, mice
Protocol: To assess a compound's undesirable side effects (toxicity), animals can be monitored for overt signs of impaired neurological or muscular function. In mice, the rotarod procedure (Dunham and Miya, J. Am. Pharmacol. Assoc. 46:208-209 (1957)) is used to disclose minimal muscular or neurological impairment (MMI). When a mouse is placed on a rod that rotates at a speed of 6 rpm, the animal can maintain its equilibrium for long periods of time. The animal is considered toxic if it falls off this rotating rod three times during a 1-min period.

α1G (CaV 3.1) = molecular target: T2, α1G (CaV 3.1) (Homo sapiens, UniProt O43497); assay: T-type calcium channel block, whole cell patch clamp; type: cell-based; details: HEK cells, mainly non-inactivated protocol; values above 10,000 nM represented as 10000
T2 construct: expressed in transfected cells; host or cells: HEK 293
Protocol: as §1, §2, §3, §4, §5

[3] = tested on: Lamina I/II spinal cord neurons; assay: Lamina assay, current-clamp recordings in spinal cord slices; type: cell-based, rat; details: Lamina I and II neurons
Source text: Male Wistar rats (P6 to P9 for voltage-clamp and P15 to P18 for current-clamp recordings) were anaesthetized through intraperitoneal injection of Inactin (Sigma). The spinal cord was then rapidly dissected out and placed in an ice-cold solution protective sucrose solution containing (in mM): 50 sucrose, 92 NaCl, 15 D-Glucose, 26 NaHCO3, 5 KCl, 1.25 NaH2PO4, 0.5 CaCl2, 7 MgSO4, 1 kynurenic acid, and bubbled with 5% CO2/95% O2. The meninges, dura, and dorsal and ventral roots were then removed from the lumbar region of the spinal cord under a dissecting microscope. The “cleaned” lumbar region of the spinal cord was glued to the vibratome stage and immediately immersed in ice cold, bubbled, sucrose solution. For current-clamp recordings, 300 to 350 μm parasagittal slices were cut to preserve the dendritic arbour of lamina I neurons, while 350 to 400 μm transverse slices were prepared for voltage-clamped […] channel recordings. Slices were allowed to recover for 1 hour at 35° C. in Ringer solution containing (in mM): 125 NaCl, 20 D-Glucose, 26 NaHCO3, 3 KCl, 1.25 NaH2PO4, 2 CaCl2, 1 MgCl2, 1 kynurenic acid, 0.1 picrotoxin, bubbled with 5% CO2/95% O2. The slice recovery chamber was then returned to room temperature (20 to 22° C.) and all recordings were performed at this temperature.
Neurons were visualized using IR-DIC optics (Zeiss Axioskop 2 FS plus, Gottingen, Germany), and neurons from lamina I and the outer layer of lamina II were selected based on their location relative to the substantia gelatinosa layer. Neurons were patch-clamped using borosilicate glass patch pipettes with resistances of […] Current-clamp recordings of lamina I/II neurons in the intact slice, the external recording solution was the above Ringer solution, while the internal patch pipette solution contained (in mM): 140 KGluconate, 4 NaCl, 10 HEPES, 1 EGTA, 0.5 MgCl2, 4 MgATP, 0.5 Na2GTP, adjusted to pH 7.2 with 5 M KOH and to 290 mOsm with D-Mannitol (if necessary). […]

T1 sequence (O95180 whole entry): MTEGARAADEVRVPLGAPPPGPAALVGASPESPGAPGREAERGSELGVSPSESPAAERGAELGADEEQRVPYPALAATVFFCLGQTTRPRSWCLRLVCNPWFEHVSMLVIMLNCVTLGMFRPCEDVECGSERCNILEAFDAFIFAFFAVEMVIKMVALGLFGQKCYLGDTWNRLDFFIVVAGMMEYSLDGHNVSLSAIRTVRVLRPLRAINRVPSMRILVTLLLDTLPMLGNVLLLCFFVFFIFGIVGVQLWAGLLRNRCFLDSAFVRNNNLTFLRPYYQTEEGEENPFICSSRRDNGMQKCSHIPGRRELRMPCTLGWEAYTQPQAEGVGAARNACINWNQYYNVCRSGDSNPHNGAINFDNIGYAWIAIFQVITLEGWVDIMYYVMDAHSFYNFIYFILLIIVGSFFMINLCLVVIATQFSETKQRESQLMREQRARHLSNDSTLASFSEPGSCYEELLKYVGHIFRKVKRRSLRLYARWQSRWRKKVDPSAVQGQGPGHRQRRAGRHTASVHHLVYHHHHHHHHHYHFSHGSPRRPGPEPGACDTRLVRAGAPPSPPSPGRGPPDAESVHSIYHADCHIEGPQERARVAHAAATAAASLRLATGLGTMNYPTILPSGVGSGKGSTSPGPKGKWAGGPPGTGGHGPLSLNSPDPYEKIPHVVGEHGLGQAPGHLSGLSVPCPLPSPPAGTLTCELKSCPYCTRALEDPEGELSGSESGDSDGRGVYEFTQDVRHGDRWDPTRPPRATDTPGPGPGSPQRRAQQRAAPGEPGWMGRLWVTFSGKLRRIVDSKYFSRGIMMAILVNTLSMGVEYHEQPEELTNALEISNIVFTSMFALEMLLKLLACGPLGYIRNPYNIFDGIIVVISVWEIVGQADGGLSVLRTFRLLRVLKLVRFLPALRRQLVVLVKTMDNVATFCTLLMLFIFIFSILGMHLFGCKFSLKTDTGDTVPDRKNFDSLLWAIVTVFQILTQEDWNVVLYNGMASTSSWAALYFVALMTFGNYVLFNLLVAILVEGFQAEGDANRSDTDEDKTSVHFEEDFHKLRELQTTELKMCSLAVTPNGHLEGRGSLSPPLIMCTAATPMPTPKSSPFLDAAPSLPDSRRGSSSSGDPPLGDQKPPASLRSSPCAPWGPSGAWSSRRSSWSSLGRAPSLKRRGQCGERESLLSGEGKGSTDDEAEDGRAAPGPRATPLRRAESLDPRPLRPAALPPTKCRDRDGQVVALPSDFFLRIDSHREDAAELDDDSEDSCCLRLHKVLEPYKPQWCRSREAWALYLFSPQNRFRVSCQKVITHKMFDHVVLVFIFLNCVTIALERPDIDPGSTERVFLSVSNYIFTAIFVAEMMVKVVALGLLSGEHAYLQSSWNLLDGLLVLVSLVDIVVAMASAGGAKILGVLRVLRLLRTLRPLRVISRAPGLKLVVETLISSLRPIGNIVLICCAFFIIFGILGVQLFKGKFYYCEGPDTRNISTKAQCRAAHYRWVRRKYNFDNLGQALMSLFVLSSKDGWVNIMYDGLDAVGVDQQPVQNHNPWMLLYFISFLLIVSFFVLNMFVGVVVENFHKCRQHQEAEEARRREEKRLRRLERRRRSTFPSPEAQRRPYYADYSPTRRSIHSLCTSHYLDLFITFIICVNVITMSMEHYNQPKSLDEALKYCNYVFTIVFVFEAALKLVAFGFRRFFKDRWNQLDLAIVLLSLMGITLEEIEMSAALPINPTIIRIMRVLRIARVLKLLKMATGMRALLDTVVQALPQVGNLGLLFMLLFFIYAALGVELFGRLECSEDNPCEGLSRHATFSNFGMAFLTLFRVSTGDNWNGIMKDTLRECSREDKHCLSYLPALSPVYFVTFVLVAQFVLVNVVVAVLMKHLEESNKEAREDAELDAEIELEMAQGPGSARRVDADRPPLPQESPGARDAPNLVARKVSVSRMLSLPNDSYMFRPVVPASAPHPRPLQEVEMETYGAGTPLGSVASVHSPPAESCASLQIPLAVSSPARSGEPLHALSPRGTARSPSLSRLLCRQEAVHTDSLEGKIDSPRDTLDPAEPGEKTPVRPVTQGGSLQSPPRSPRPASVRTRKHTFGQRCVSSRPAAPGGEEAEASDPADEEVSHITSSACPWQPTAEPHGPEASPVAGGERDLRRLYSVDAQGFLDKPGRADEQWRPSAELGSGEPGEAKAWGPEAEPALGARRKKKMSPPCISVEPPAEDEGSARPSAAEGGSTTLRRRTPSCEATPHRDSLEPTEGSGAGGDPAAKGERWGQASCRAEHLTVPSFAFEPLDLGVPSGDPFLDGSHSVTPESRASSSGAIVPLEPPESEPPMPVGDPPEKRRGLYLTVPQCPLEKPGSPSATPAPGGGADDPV
T2 sequence (O43497 whole entry): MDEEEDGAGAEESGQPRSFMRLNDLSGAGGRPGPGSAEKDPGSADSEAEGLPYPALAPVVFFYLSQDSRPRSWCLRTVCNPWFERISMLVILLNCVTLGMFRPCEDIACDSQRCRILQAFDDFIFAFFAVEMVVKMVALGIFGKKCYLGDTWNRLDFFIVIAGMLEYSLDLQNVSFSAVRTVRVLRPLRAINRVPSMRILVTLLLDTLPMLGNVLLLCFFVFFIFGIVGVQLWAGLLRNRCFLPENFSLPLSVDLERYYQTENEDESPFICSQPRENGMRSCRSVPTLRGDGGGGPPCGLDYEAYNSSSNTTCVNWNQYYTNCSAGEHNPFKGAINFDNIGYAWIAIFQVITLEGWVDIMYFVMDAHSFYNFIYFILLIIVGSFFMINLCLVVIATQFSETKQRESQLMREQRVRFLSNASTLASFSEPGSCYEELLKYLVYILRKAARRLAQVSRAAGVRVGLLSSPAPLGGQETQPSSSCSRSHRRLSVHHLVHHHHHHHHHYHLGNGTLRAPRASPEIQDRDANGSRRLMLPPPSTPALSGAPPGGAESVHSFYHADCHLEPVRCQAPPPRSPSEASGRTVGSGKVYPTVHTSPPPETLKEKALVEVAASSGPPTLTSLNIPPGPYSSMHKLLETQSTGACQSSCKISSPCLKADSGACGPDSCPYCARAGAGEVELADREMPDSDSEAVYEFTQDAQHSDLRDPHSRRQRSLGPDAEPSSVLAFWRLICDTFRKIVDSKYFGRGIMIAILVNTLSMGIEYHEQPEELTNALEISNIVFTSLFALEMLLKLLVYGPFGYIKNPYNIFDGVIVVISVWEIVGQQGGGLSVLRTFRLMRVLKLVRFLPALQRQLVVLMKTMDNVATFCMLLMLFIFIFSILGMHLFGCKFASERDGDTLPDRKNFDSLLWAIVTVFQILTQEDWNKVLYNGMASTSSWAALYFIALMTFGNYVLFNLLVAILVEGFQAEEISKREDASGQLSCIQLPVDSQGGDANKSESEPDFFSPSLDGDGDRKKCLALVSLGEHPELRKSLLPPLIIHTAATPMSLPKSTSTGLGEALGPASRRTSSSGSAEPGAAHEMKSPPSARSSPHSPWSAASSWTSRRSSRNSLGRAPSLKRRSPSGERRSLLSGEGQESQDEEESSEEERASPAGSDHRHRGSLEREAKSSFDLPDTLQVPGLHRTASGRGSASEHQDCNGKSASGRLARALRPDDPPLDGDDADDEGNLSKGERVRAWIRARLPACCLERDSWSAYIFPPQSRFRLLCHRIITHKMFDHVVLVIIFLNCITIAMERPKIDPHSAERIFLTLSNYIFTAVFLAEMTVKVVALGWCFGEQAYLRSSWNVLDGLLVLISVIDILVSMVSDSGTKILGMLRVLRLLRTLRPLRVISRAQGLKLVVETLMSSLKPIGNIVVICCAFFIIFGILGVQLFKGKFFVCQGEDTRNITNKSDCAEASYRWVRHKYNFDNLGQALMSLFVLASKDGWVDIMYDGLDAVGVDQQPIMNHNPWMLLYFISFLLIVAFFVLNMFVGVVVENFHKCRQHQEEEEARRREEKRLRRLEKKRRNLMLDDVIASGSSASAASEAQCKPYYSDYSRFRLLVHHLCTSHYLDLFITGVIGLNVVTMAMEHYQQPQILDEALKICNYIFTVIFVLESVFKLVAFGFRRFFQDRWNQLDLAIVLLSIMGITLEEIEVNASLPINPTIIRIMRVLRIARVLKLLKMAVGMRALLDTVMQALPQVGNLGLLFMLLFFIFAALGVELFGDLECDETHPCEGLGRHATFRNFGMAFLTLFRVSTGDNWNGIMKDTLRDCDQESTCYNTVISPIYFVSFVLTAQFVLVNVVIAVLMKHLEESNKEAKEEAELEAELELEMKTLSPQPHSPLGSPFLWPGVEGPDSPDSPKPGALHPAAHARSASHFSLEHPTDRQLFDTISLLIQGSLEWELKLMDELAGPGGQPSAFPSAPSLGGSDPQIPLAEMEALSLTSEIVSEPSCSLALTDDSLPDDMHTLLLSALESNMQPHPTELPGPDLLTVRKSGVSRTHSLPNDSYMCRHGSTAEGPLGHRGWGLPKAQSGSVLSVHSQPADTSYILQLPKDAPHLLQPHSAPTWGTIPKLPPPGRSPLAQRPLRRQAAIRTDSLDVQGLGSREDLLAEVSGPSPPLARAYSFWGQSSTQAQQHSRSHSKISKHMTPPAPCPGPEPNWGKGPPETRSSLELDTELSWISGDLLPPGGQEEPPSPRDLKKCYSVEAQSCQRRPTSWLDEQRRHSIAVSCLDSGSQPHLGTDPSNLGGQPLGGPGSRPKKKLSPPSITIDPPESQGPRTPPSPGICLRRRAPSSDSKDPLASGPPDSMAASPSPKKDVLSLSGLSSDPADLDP

NC1(CC(=O)N2CCC(O)(CC(=O)Nc3cc(C(F)(F)F)cc(C(F)(F)F)c3)CC2)CCCCC1 [Compound 54, 2-(1-(2-(1-aminocyclohexyl)acetyl)-4-hydroxypiperidin-4-yl)-N-(3,5-bis(trifluoromethyl)phenyl)acetamide]
Rat SNL tactile allodynia (% antiallodynia) ([1]; 1 hr): 41% | Rat SNL tactile allodynia (% antiallodynia) ([1]; 2 hr): 39% | Rat SNL tactile allodynia (% antiallodynia) ([1]; 4 hr): 45% | Epilepsy 6 Hz (% Protected) (6 Hz psychomotor seizure; 0.25 hr): 25% | Epilepsy 6 Hz (% Protected) (6 Hz psychomotor seizure; 0.5 hr): 75% | Epilepsy 6 Hz (% Protected) (6 Hz psychomotor seizure; 1 hr): 75% | Epilepsy 6 Hz (% Protected) (6 Hz psychomotor seizure; 2 hr): 75% | Epilepsy 6 Hz (% Protected) (6 Hz psychomotor seizure; 4 hr): 100% | IC50 (α1H (CaV 3.2)): 80 nM

NC1(CC(=O)N2CCC(NC(=O)Nc3cc(C(F)(F)F)cc(C(F)(F)F)c3)CC2)CCCCC1 [Compound 75]
Rat SNL tactile allodynia (% antiallodynia) ([1]; 1 hr): 5% | Rat SNL tactile allodynia (% antiallodynia) ([1]; 2 hr): 3% | Rat SNL tactile allodynia (% antiallodynia) ([1]; 4 hr): 3%

O=C(CC1CCN(C(=O)C2CNCCO2)CC1)Nc1cc(C(F)(F)F)cc(C(F)(F)F)c1 (stereo not drawn) [Compound 4, N-(3,5-bis(trifluoromethyl)phenyl)-2-(1-(morpholine-2-carbonyl)piperidin-4-yl)acetamide]
Rotarod Assay (% impaired) ([2]; 0.25 hr): 25% | Rotarod Assay (% impaired) ([2]; 0.5 hr): 0% | Rotarod Assay (% impaired) ([2]; 1 hr): 75% | Rotarod Assay (% impaired) ([2]; 2 hr): 75% | Rotarod Assay (% impaired) ([2]; 4 hr): 75% | IC50 (α1H (CaV 3.2)): 2180 nM | IC50 (α1G (CaV 3.1)): > 10000 nM

NC1(CC(=O)N2CCC(CC(=O)Nc3cc(C(F)(F)F)cc(C(F)(F)F)c3)CC2)CCCCC1 [Compound 8, 2-(1-(2-(1-aminocyclohexyl)acetyl)piperidin-4-yl)-N-(3,5-bis(trifluoromethyl)phenyl)acetamide]
Rotarod Assay (% impaired) ([2]; 0.25 hr): 0% | Rotarod Assay (% impaired) ([2]; 0.5 hr): 50% | Rotarod Assay (% impaired) ([2]; 1 hr): 75% | Rotarod Assay (% impaired) ([2]; 2 hr): 100% | Rotarod Assay (% impaired) ([2]; 4 hr): 100% | Epilepsy 6 Hz (% Protected) (6 Hz psychomotor seizure; 0.25 hr): 75% | Epilepsy 6 Hz (% Protected) (6 Hz psychomotor seizure; 0.5 hr): 75% | Epilepsy 6 Hz (% Protected) (6 Hz psychomotor seizure; 1 hr): 67% | Epilepsy 6 Hz (% Protected) (6 Hz psychomotor seizure; 2 hr): 100% | IC50 (α1H (CaV 3.2)): 110 nM | IC50 (α1G (CaV 3.1)): > 10000 nM

O=C(CC1CCN(C(=O)[C@H]2CCCCN2)CC1)Nc1cc(C(F)(F)F)cc(C(F)(F)F)c1 [Compound 74]
% Spike Change Mean [3]: −53%

N[C@H]1CCCC[C@@H]1C(=O)N1CCC(CC(=O)Nc2cccc(C(F)(F)F)c2)CC1 (racemic) [Compound 13, trans-2-(1-(2-aminocyclohexanecarbonyl)piperidin-4-yl)-N-(3-(trifluoromethyl)phenyl)acetamide]
IC50 (α1H (CaV 3.2)): 2670 nM | IC50 (α1G (CaV 3.1)): > 10000 nM

N[C@H]1CCCC[C@@H]1C(=O)N1CCC(CC(=O)Nc2cc(C(F)(F)F)cc(C(F)(F)F)c2)CC1 [Compound 7, 2-(1-((1S,2S)-2-aminocyclohexanecarbonyl)piperidin-4-yl)-N-(3,5-bis(trifluoromethyl)phenyl)acetamide]
IC50 (α1H (CaV 3.2)): 140 nM | IC50 (α1G (CaV 3.1)): > 10000 nM

NCC1(CC(=O)O)CCCCC1 [Gabapentin, gabapentin, reference compound]
% Antiallodynia (Mean ± SD) ([1]; 1 h): 73 ± 35 % | % Antiallodynia (Mean ± SD) ([1]; 2 h): 90 ± 18 % | % Antiallodynia (Mean ± SD) ([1]; 4 h): 15 ± 8% | anti-allodynia performance compared with first study ([1]; second repetition of the study): performed similarly
